Measurements taken from patent US20090029992A1, “SUBSTITUTED PYRAZOLE COMPOUNDS” (priority 2007, published 2009).

How the values were obtained:
Type in all cases: biochemical
[1] = target: T1, N-terminal His-tagged human Src (Homo sapiens, UniProt P12931); assay: Src kinase inhibition assay (33P-ATP filter assay)
T1 construct: His (N); purchased Upstate USA Inc, 706 Forest Street, Charlottesville, Va

[2] = target: T2, N-terminal GST-tagged recombinant human Flt3, residues 564-end (Homo sapiens, UniProt P36888); assay: Flt3 kinase inhibition assay (33P-ATP filter assay)
T2 construct: recombinant human Flt3, residues 564-end; GST (N); purchased Upstate USA Inc, 706 Forest Street, Charlottesville, Va
T2 sequence (P36888 564-993 limits assumed): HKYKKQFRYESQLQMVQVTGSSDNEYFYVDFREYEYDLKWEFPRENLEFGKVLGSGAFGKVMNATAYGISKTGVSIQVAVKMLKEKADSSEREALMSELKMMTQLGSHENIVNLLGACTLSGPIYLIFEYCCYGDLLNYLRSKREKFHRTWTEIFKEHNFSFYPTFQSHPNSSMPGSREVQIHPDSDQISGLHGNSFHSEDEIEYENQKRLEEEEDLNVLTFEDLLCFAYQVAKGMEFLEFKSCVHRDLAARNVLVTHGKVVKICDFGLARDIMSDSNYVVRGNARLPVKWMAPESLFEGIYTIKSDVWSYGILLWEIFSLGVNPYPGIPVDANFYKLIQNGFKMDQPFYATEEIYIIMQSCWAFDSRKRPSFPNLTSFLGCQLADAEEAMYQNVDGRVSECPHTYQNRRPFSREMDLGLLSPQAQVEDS
In short: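 Serial compound dilutions incubated 40 min at room temperature with 5-10 mU Flt3 kinase, 50 μM peptide substrate and [γ-33P]ATP/10 mM magnesium acetate, pH 7.0. Phosphoric acid stop, filter capture and scintillation counting; activity compared with uninhibited reactions.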

[3] = target: T3, N-terminal His6-tagged recombinant human KDR, residues 790-end (Homo sapiens, UniProt P35968); assay: KDR kinase inhibition assay (33P-ATP filter assay)
T3 construct: recombinant human KDR, residues 790-end; His6 (N); purchased Upstate USA Inc, 706 Forest Street, Charlottesville, Va
In short: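 His6-tagged human KDR (residues 790-end, 5-10 mU) with 0.33 mg/mL myelin basic protein in 8 mM MOPS pH 7.0, 0.2 mM EDTA, 10 mM magnesium acetate and [γ-33P]ATP; 40 min at room temperature. Stopped with phosphoric acid, filter-bound 33P counted; inhibition relative to no-inhibitor controls.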

[4] = group with IC50 greater than 100 nM

T3 sequence (P35968 790-1356 limits assumed): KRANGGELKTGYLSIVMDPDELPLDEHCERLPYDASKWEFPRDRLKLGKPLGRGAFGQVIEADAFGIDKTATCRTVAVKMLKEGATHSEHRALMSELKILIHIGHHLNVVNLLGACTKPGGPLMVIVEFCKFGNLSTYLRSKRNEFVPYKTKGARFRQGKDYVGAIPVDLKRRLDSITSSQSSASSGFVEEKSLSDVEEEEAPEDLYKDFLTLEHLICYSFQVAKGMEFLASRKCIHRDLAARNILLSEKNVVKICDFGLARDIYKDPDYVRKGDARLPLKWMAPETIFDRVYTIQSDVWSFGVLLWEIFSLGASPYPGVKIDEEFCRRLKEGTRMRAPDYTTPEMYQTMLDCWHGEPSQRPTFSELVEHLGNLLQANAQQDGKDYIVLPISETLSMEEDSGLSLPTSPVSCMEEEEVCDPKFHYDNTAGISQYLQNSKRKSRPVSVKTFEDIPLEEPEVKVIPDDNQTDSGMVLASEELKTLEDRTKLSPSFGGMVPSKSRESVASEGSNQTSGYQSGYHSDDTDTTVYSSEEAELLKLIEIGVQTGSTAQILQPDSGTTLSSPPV
T1 sequence (P12931 whole entry): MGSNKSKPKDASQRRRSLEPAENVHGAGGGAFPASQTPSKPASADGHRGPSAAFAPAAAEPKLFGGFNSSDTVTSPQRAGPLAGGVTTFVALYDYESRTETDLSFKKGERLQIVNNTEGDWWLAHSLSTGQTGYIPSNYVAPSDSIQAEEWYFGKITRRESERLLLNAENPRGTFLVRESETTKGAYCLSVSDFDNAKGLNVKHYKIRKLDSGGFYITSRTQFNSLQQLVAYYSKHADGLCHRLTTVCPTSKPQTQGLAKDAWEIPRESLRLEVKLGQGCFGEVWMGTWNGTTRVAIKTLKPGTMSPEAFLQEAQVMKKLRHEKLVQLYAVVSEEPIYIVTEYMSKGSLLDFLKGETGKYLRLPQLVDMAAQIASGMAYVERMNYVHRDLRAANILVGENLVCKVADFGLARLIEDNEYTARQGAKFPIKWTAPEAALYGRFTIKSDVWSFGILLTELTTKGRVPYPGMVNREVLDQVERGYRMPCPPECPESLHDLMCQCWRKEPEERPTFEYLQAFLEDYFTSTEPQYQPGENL

IC50 [1, 4] [nM] | IC50 ([2]; 40 minutes at room temperature) [nM] | IC50 [3, 4] [nM] | IC50 ([1]; 40 minutes at room temperature) [nM] | IC50 ([3]; 40 minutes at room temperature) [nM] | IC50 [2, 4] [nM] | Compound
≤ 1000 | ≤ 100 | ≤ 1000 |  |  |  | Cc1cc(Nc2cc(NC3CCOCC3)nc(-c3ccccc3C(F)(F)F)n2)n[nH]1 [Compound 81, N^4-(5-methyl-1H-pyrazol-3-yl)-N^6-(tetrahydro-2H-pyran-4-yl)-2-(2-(trifluoromethyl)phenyl)pyrimidine-4,6-diamine]
 | ≤ 100 | ≤ 1000 | ≤ 100 |  |  | Cc1cc(Nc2cc(N(C)CCN(C)C)nc(-c3ccc4c(c3)OCO4)n2)n[nH]1 [Example 146, 2-(benzo[d][1,3]dioxol-5-yl)-N^4-(2-(dimethylamino)ethyl)-N^4-methyl-N^6-(5-methyl-1H-pyrazol-3-yl)pyrimidine-4,6-diamine]
 | ≤ 100 | ≤ 1000 | ≤ 100 |  |  | Cc1cc(Nc2cc(N3CCN(C)CC3)nc(-c3ccc(-c4ccccc4)cc3)n2)n[nH]1 [Example 157, 2-(biphenyl-4-yl)-N-(5-methyl-1H-pyrazol-3-yl)-6-(4-methylpiperazin-1-yl)pyrimidin-4-amine]
 | ≤ 100 | ≤ 1000 |  |  |  | COCCN(C)c1cc(Nc2cc(C)[nH]n2)nc(-c2cccc3c2OCCO3)n1 [Example 150, 2-(2,3-dihydrobenzo[b][1,4]dioxin-5-yl)-N^4-(2-methoxyethyl)-N^4-methyl-N^6-(5-methyl-1H-pyrazol-3-yl)pyrimidine-4,6-diamine]
≤ 1000 | ≤ 100 |  |  | ≤ 100 |  | Cc1cc(Nc2cc(N3CCN(C)CC3)nc(-c3ccccc3C(F)(F)F)n2)n[nH]1 [Compound 102, N-(5-methyl-1H-pyrazol-3-yl)-6-(4-methylpiperazin-1-yl)-2-(2-(trifluoromethyl)phenyl)pyrimidin-4-amine]
 | ≤ 100 | ≤ 1000 | ≤ 100 |  |  | COCCN(C)c1cc(Nc2cc(C)[nH]n2)nc(-c2ccc(N(C)C)cc2)n1 [Compound 118, 2-(4-(dimethylamino)phenyl)-N^4-(2-methoxyethyl)-N^4-methyl-N^6-(5-methyl-1H-pyrazol-3-yl)pyrimidine-4,6-diamine]
≤ 1000 | ≤ 100 | ≤ 1000 |  |  |  | COCCN(C)c1cc(Nc2cc(C)[nH]n2)nc(-c2cccc3ccccc23)n1 [Example 148, N^4-(2-methoxyethyl)-N^4-methyl-N^6-(5-methyl-1H-pyrazol-3-yl)-2-(naphthalen-1-yl)pyrimidine-4,6-diamine]
≤ 1000 | ≤ 100 | ≤ 1000 |  |  |  | Cc1cc(Nc2cc(NC3CCOCC3)nc(-c3cccc(C(F)(F)F)c3)n2)n[nH]1 [Compound 80, N^4-(5-methyl-1H-pyrazol-3-yl)-N^6-(tetrahydro-2H-pyran-4-yl)-2-(3-(trifluoromethyl)phenyl)pyrimidine-4,6-diamine]
≤ 1000 | ≤ 100 | ≤ 1000 |  |  |  | COCCN(C)c1cc(Nc2cc(C)[nH]n2)nc(-c2ccc(OC)cc2)n1 [Compound 67, N^4-(2-methoxyethyl)-2-(4-methoxyphenyl)-N^4-methyl-N^6-(5-methyl-1H-pyrazol-3-yl)pyrimidine-4,6-diamine]
≤ 1000 | ≤ 100 |  |  |  |  | Cc1cc(Nc2cc(NC3CCOCC3)nc(-c3ccc(C(F)(F)F)cc3)n2)n[nH]1 [Compound 79, N^4-(5-methyl-1H-pyrazol-3-yl)-N^6-(tetrahydro-2H-pyran-4-yl)-2-(4-(trifluoromethyl)phenyl)pyrimidine-4,6-diamine]
≤ 1000 | ≤ 100 | ≤ 1000 |  |  |  | Cc1cc(Nc2cc(NC3CCOCC3)nc(-c3cccc4ccccc34)n2)n[nH]1 [Example 127, N^4-(5-methyl-1H-pyrazol-3-yl)-2-(naphthalen-1-yl)-N^6-(tetrahydro-2H-pyran-4-yl)pyrimidine-4,6-diamine]
≤ 1000 |  | ≤ 1000 |  |  | ≤ 1000 | COCCN(C)c1cc(Nc2cc(C)[nH]n2)nc(-c2cccc(C(F)(F)F)c2)n1 [Compound 125, N^4-(2-methoxyethyl)-N^4-methyl-N^6-(5-methyl-1H-pyrazol-3-yl)-2-(3-(trifluoromethyl)phenyl)pyrimidine-4,6-diamine]
 | ≤ 100 | ≤ 1000 |  |  |  | COCCN(C)c1cc(Nc2cc(C)[nH]n2)nc(-c2ccccc2C(F)(F)F)n1 [Example 126, N^4-(2-methoxyethyl)-N^4-methyl-N^6-(5-methyl-1H-pyrazol-3-yl)-2-(2-(trifluoromethyl)phenyl)pyrimidine-4,6-diamine]
≤ 1000 | ≤ 100 | ≤ 1000 |  |  |  | Cc1cc(Nc2cc(N3CCN(C)CC3)nc(-c3cccc4c3OCCO4)n2)n[nH]1 [Example 136, 2-(2,3-dihydrobenzo[b][1,4]dioxin-5-yl)-N-(5-methyl-1H-pyrazol-3-yl)-6-(4-methylpiperazin-1-yl)pyrimidin-4-amine]
≤ 1000 | ≤ 100 |  |  |  |  | Cc1cc(Nc2cc(N3CCN(C)CC3)nc(-c3ccc(C(F)(F)F)cc3)n2)n[nH]1 [Compound 100]
 | ≤ 100 | ≤ 1000 | ≤ 100 |  |  | Cc1cc(Nc2cc(N(C)CCN(C)C)nc(-c3ccc(C(C)(C)C)cc3)n2)n[nH]1 [Compound 103, 2-(4-tert-butylphenyl)-N^4-(2-(dimethylamino)ethyl)-N^4-methyl-N^6-(5-methyl-1H-pyrazol-3-yl)pyrimidine-4,6-diamine]
≤ 1000 | ≤ 100 | ≤ 1000 |  |  |  | Cc1cc(Nc2cc(N3CCN(C)CC3)nc(-c3cc(F)cc(Cl)c3)n2)n[nH]1 [Compound 97]
 | ≤ 100 | ≤ 1000 | ≤ 100 |  |  | Cc1cc(Nc2cc(N(C)CCN(C)C)nc(-c3ccc4ccccc4c3)n2)n[nH]1 [Example 142, N^4-(2-(dimethylamino)ethyl)-N^4-methyl-N^6-(5-methyl-1H-pyrazol-3-yl)-2-(naphthalen-2-yl)pyrimidine-4,6-diamine]
≤ 1000 | ≤ 100 | ≤ 1000 |  |  |  | Cc1cc(Nc2cc(NC3CCOCC3)nc(-c3ccc(C(C)(C)C)cc3)n2)n[nH]1 [Compound 70, 2-(4-tert-butylphenyl)-N^4-(5-methyl-1H-pyrazol-3-yl)-N^6-(tetrahydro-2H-pyran-4-yl)pyrimidine-4,6-diamine]
 | ≤ 100 |  | ≤ 100 | ≤ 100 |  | Cc1cc(Nc2cc(N(C)CCN(C)C)nc(-c3cccc(N(C)C)c3)n2)n[nH]1 [Compound 107]
≤ 1000 | ≤ 100 | ≤ 1000 |  |  |  | COCCN(C)c1cc(Nc2cc(C)[nH]n2)nc(-c2ccc3ccccc3c2)n1 [Example 149, N^4-(2-methoxyethyl)-N^4-methyl-N^6-(5-methyl-1H-pyrazol-3-yl)-2-(naphthalen-2-yl)pyrimidine-4,6-diamine]
≤ 1000 | ≤ 100 | ≤ 1000 |  |  |  | COCCN(C)c1cc(Nc2cc(C)[nH]n2)nc(-c2ccccc2Cl)n1 [Compound 63]
≤ 1000 | ≤ 100 | ≤ 1000 |  |  |  | COCCN(C)c1cc(Nc2cc(C)[nH]n2)nc(-c2cccc(OC)c2)n1 [Compound 68, N^4-(2-methoxyethyl)-2-(3-methoxyphenyl)-N^4-methyl-N^6-(5-methyl-1H-pyrazol-3-yl)pyrimidine-4,6-diamine]
 | ≤ 100 | ≤ 1000 | ≤ 100 |  |  | Cc1cc(Nc2cc(N(C)CCN(C)C)nc(-c3cccc(C(F)(F)F)c3)n2)n[nH]1 [Compound 113, N^4-(2-(dimethylamino)ethyl)-N^4-methyl-N^6-(5-methyl-1H-pyrazol-3-yl)-2-(3-(trifluoromethyl)phenyl)pyrimidine-4,6-diamine]
≤ 1000 | ≤ 100 | ≤ 1000 |  |  |  | COCCN(C)c1cc(Nc2cc(C)[nH]n2)nc(-c2cccc(C)c2)n1 [Compound 65, N^4-(2-methoxyethyl)-N^4-methyl-N^6-(5-methyl-1H-pyrazol-3-yl)-2-m-tolylpyrimidine-4,6-diamine]
